For experiment [1], the system named is C. albicans (ATCC®10231™). The experiment in a line: Microbial challenge testing in alginogel with GOX+LPO. The format is cell-based. Conditions: for reduction in absolute C. albicans counts compared to guaiacol in the same concentration: alginogel with GOX+LPO, enhancer 0.0005%; for antimicrobial activity of enhancing candidate only against C. albicans: alginogel without enzymes, highest concentration tested; for reduction in absolute C. albicans counts compared to reference (enzymes only): alginogel, 0.0075% GOX+LPO. As to the method: (§1) To determine the ability of an antimicrobial agent to elicit an antimicrobial preserving efficacy in a gel environment, a microbiological challenge test can be performed. Here, the antimicrobial agent is a combination of the natural enzymes GOX+LPO. […] Microbial challenge testing was performed according to the method described in the European Pharmacopoeia current version chapter 5.1.3 ‘Efficacy of antimicrobial preservation’, but with adapted time points (0, 10, 20, 30, 40, 50, 60, 70 and 80 min instead of 0, 2, 7, 14 and 28 days). In brief, for every enhancing agent to be evaluated, a lab-scale alginogel (based on the Flaminal® formulation, but without the original enhancer guaiacol) including 0.0075% GOX+LPO (1:1) was prepared according to standard practices. Enhancing agents were added to the alginogel in a final concentration ranging from 0.01 to 0,00025% (v/w). As a reference, an alginogel including 0.0075% GOX+LPO (1:1) without the addition of any enhancing agent was included (designated as: enzymes only). As a control, an alginogel without both GOX+LPO (1:1) enzyme solution and enhancing agent (designated as: empty gel) as well as an alginogel only containing the enhancing agent only (designated as: enhancing candidate only) were included. After preparation, a homogenous sample of 10 g was transferred into a 50 ml conical tube for each alginogel to be evaluated and microorganism to be tested. For each test microorganism, including S. aureus (ATCC®6538™), P. aeruginosa (ATCC®9027™), C. albicans (ATCC®10231™) and A. niger (ATCC®16404 ™), a microbial suspension of about 10^8 CFU/ml was prepared in sterile diluent (buffered sodium chloride-peptone solution). Then, the 50 ml conical tubes containing the alginogel samples to be evaluated were inoculated with 100 μl of the designated inoculum. At the start (time point 0) and after 0, 10, 20, 30, 40, 50, 60, 70 and 80 min, the number of viable microorganisms per gram product (expressed as CFU/g) was determined by transferring a sample of 0.5 g of the product into a 15 ml conical tube containing 4.5 ml of sterile diluent and applying general dilution and plate count techniques. For each combination evaluated, this test was repeated at least 1-3 times. The collected data were further analyzed in MS Excel. Mean absolute counts (expressed as log CFU/g) were visualized in a graph.

Experiment [2] has as its system A. niger (ATCC®16404 ™). The description is as above. The format is cell-based. Conditions: for reduction in absolute A. niger counts compared to guaiacol in the same concentration: alginogel with GOX+LPO; for antimicrobial activity of enhancing candidate only against A. niger: alginogel without enzymes, highest concentration tested; for reduction in absolute A. niger counts compared to reference (enzymes only): alginogel, 0.0075% GOX+LPO. As for the experimental part: as §1

The test system of experiment [3] is Staphylococcus aureus ATCC® 6538™. Put plainly: MBC determination, broth microdilution with CFU enumeration. To be noted: S. aureus. The format is cell-based. As for the experimental part:
The minimal bactericidal concentration (MBC) is defined as the lowest concentration of an antimicrobial agent that results in a complete killing of the microbial population (determined via standard CFU enumeration techniques) after overnight incubation. This endpoint measurement is used, together with the MIC (see above), to define the microbial susceptibility towards an antimicrobial agent. Here, the antimicrobial agent is a combination of the natural enzymes GOX+LPO.
To determine the MBC of the described combinations, a classical broth microdilution assay combined with standard CFU enumeration techniques was used to determine the susceptibility of a series of microbes commonly detected in infected wounds, including (a) the Gram-positive bacterium Staphylococcus aureus ATCC® 6538™ (results shown below), (b) the Gram-negative bacterium Pseudomonas aeruginosa ATCC®9027™ (results shown below), (c) the yeast Candida albicans ATCC®10231™ (results shown below), and (d) the fungus Aspergillus niger ATCC®16404™ (results shown below). In brief, the broth microdilution assay was set up as previously described (see 2.1). After incubation, the MBC was determined by investigating the presence of viable microorganisms at the MIC and following higher concentrations (MICx2, MICx4, and so on) using standard CFU enumeration techniques. For each combination evaluated, this test was repeated at least 5 times. The collected data were further analyzed in MS Excel. Mean concentration data (expressed as log CFU/ml) were visualized in a table format in which the MBC was highlighted.

Experiment [4] deals with Lactoperoxidase (Bos taurus, UniProt P80025). Put plainly: Lactoperoxidase (LPO) activity, spectrophotometric assay (ABTS). The format is biochemical. As for the experimental part:
Lactoperoxidase is a member of the heme peroxidase family of enzymes that, together with a catalytic anion (such as I^−, derived from KI, present in the substrate), will catalyse the oxidation of H2O2, leading to hypojodite (IO^−). This hypojodite is a reactive oxygen species (ROS). To measure the enzymatic activity of LPO, a standard spectrophotometric assay is performed. In brief, H2O2 combined with 2,2′-azino-bis (3-ethylbenzothiazoline-6-sulfonzuur (ABTS) is catalysed by LPO so that the formation of a coloured compound is achieved that can in turn be measured by spectrophotometry. LPO was tested in 3 different concentrations, i.e., 50, 10 and 1 mg/ml. Each reaction mixture was tested in duplo. In the event LPO activity was evaluated in the presence of a potentiator candidate (=a molecule that might be able to augment the enzymatic activity of LPO), the latter was added in a low and high concentration ranging from 100 to 0.1 mg/ml. The blank consisted of the reaction mix in which H2O2 was absent. The absorbance was immediately measured with a plate reader (Spectramax ID3, Molecular Devices) every 12 seconds for 5 minutes at 20° C. For each combination evaluated, this test was repeated at least 2 times. Results were further analysed in MS Excel and expressed as U/g. Mean blank-corrected data±SD were plotted. Statistical significance compared to the combination without potentiator candidate (reference) was calculated using students' t-tests. Significance is achieved when the obtained p-value is lower than 0,05. Significance levels were defined as p<0.05=*; p<0.01=** and p<0.001=***.

The source of these data is US20260273028A1, “PEROXIDASE COMPOSITIONS CONTAINING IMPROVED ENHANCING AGENTS” (FLEN HEALTH PHARMA NV, priority 2022, published 2026).

Take `O=C(O)[C@@H]1CCCN1` [Proline, proline]: in experiment [1], the “reduction in absolute C. albicans counts compared to guaiacol in the same concentration” value is given as “faster complete reduction”. The “antimicrobial activity of enhancing candidate only against C. albicans” value (“antimicrobial activity … against C. albicans” below) in experiment [1] is “no antimicrobial activity”. The “reduction in absolute C. albicans counts compared to reference (enzymes only)” value in experiment [1] (enhancer 0.00125%) is listed as “faster complete reduction”; in experiment [1] (enhancer 0.0025%), “immediate entire reduction”. For the same compound, the “reduction in absolute A. niger counts compared to guaiacol in the same concentration” value in experiment [2] (enhancer 0.0005%) is “faster complete reduction”. Moreover, the “antimicrobial activity of enhancing candidate only against A. niger” value (shortened to “antimicrobial activity … against A. niger”) in experiment [2] is “no antimicrobial activity”. In addition, the “reduction in absolute A. niger counts compared to reference (enzymes only)” value in experiment [2] (enhancer 0.0025%) was “faster complete reduction”.
As to `CC[C@H](C)[C@H](N)C(=O)O` [Isoleucine, isoleucine], in experiment [1], the “reduction in absolute C. albicans counts compared to guaiacol in the same concentration” value is recorded as “faster complete reduction” and the “antimicrobial activity … against C. albicans” value is “no antimicrobial activity”. For the same compound, the “reduction in absolute C. albicans counts compared to reference (enzymes only)” value in experiment [1] (enhancer 0.0025%) is on record as “immediate entire reduction”. The “reduction in absolute C. albicans counts compared to reference (enzymes only)” value in experiment [1] (enhancer 0,00125-0,0005%) is recorded as “faster complete reduction”. In addition, in experiment [2] (enhancer 0.0005%), the “reduction in absolute A. niger counts compared to guaiacol in the same concentration” value is recorded as “faster complete reduction”. Also, in experiment [2], the “antimicrobial activity … against A. niger” value is on record as “no antimicrobial activity”. For the same compound, the “reduction in absolute A. niger counts compared to reference (enzymes only)” value in experiment [2] (enhancer 0,0025-0,0005%) is “faster complete reduction”. Moreover, in experiment [3] (enhancer 0.00125%), the “MBC: GOX+LPO enzyme solution needed” value is given as 0.0000391 % (v/v), the “increase in MBC compared to reference” value turned out to be 4 × and the “increase in MBC compared to the enhancing molecule guaiacol” value was 2 ×. In addition, in experiment [3] (enhancer 0.005%), the “MBC: GOX+LPO enzyme solution needed” value is 0.0000391 % (v/v), the “increase in MBC compared to reference” value amounted to 4 × and the “increase in MBC compared to the enhancing molecule guaiacol” value is 2 ×.
For `C[C@@H](O)[C@H](N)C(=O)O` [Threonine, threonine], in experiment [1], the “reduction in absolute C. albicans counts compared to guaiacol in the same concentration” value is recorded as “faster complete reduction” and the “antimicrobial activity … against C. albicans” value was “no antimicrobial activity”. Moreover, the “reduction in absolute C. albicans counts compared to reference (enzymes only)” value in experiment [1] (enhancer 0.0025%) is recorded as “immediate entire reduction”. The “reduction in absolute C. albicans counts compared to reference (enzymes only)” value in experiment [1] (enhancer 0,00125-0,0005%) is “faster complete reduction”. Besides, in experiment [2] (enhancer 0.0025%), the “reduction in absolute A. niger counts compared to guaiacol in the same concentration” value was “faster complete reduction” and the “reduction in absolute A. niger counts compared to reference (enzymes only)” value is given as “faster complete reduction”. Further, the “antimicrobial activity … against A. niger” value in experiment [2] is “no antimicrobial activity”. Besides, the “LPO activity compared to reference” value in experiment [4] (enhancer 0.1 mg/ml) is “significant increase”. The “LPO activity compared to reference” value in experiment [4] (enhancer 1 mg/ml) is listed as “significant increase”.
As to `N[C@@H](CO)C(=O)O` [Serine, serine], in experiment [1], the “reduction in absolute C. albicans counts compared to guaiacol in the same concentration” value is “faster complete reduction” and the “antimicrobial activity … against C. albicans” value is reported as “no antimicrobial activity”. In experiment [1] (enhancer 0.00125%), the “reduction in absolute C. albicans counts compared to reference (enzymes only)” value is “faster complete reduction”. In experiment [1] (enhancer 0.0025%), the “reduction in absolute C. albicans counts compared to reference (enzymes only)” value is listed as “immediate entire reduction”. The “reduction in absolute A. niger counts compared to guaiacol in the same concentration” value in experiment [2] (enhancer 0.0005%) is given as “faster complete reduction”. Moreover, in experiment [2], the “antimicrobial activity … against A. niger” value is “no antimicrobial activity”. Further, the “reduction in absolute A. niger counts compared to reference (enzymes only)” value in experiment [2] (enhancer 0,0025-0,0005%) is listed as “faster complete reduction”. In experiment [4] (enhancer 100 mg/ml, reference = no potentiator candidate), the “LPO activity compared to reference” value is reported as “significant increase”. Besides, in experiment [3] (enhancer 0.0025%-0.00125%), the “MBC: GOX+LPO enzyme solution needed” value was 0.0000391 % (v/v), the “increase in MBC compared to reference” value worked out at 4 × and the “increase in MBC compared to the enhancing molecule guaiacol” value is recorded as 2 ×. In addition, in experiment [3] (enhancer 10%-0.005%), the “MBC: GOX+LPO enzyme solution needed” value is reported as 0.0000391 % (v/v), the “increase in MBC compared to reference” value is 4 × and the “increase in MBC compared to the enhancing molecule guaiacol” value came out at 2 ×.
On to `NC(=O)CC[C@H](N)C(=O)O` [Glutamine, glutamine], for which, in experiment [1], the “reduction in absolute C. albicans counts compared to guaiacol in the same concentration” value is “faster complete reduction” and the “antimicrobial activity … against C. albicans” value is “no antimicrobial activity”. In addition, the “reduction in absolute C. albicans counts compared to reference (enzymes only)” value in experiment [1] (enhancer 0.0025%) is listed as “immediate entire reduction”. The “reduction in absolute C. albicans counts compared to reference (enzymes only)” value in experiment [1] (enhancer 0,00125-0,0005%) is on record as “faster complete reduction”. For the same compound, in experiment [2] (enhancer 0.0025%), the “reduction in absolute A. niger counts compared to guaiacol in the same concentration” value was “faster complete reduction” and the “reduction in absolute A. niger counts compared to reference (enzymes only)” value is “faster complete reduction”. Besides, the “antimicrobial activity … against A. niger” value in experiment [2] was “no antimicrobial activity”. Besides, the “LPO activity compared to reference” value in experiment [4] (enhancer 0.1 mg/ml) is “significant increase”. In addition, the “LPO activity compared to reference” value in experiment [4] (enhancer 1 mg/ml) was “significant increase”. In experiment [3] (enhancer 0.1%), the “MBC: GOX+LPO enzyme solution needed” value is 0.0000391 % (v/v), the “increase in MBC compared to reference” value came out at 4 × and the “increase in MBC compared to the enhancing molecule guaiacol” value stood at 2 ×.
Regarding `NC(=O)C[C@H](N)C(=O)O` [Asparagine, asparagine], the “antimicrobial activity … against C. albicans” value in experiment [1] is listed as “no antimicrobial activity”. The results for the “reduction in absolute C. albicans counts compared to reference (enzymes only)” value in experiment [1] (enhancer 0.00125%) and in experiment [1] (enhancer 0.0025%) were “faster complete reduction” and “immediate entire reduction”, respectively. The “reduction in absolute A. niger counts compared to guaiacol in the same concentration” value in experiment [2] (enhancer 0.0005%) is “faster complete reduction”. Besides, the “antimicrobial activity … against A. niger” value in experiment [2] was “no antimicrobial activity”. In addition, the “reduction in absolute A. niger counts compared to reference (enzymes only)” value in experiment [2] (enhancer 0,0025-0,0005%) is “faster complete reduction”. Further, the “LPO activity compared to reference” value in experiment [4] (enhancer 0.1 mg/ml) and in experiment [4] (enhancer 1 mg/ml) was “significant increase” each time.
